Assay results: US20160287589A1, “SUBSTITUTED-IMIDAZOPYRIDAZINES” (BAYER PHARMA AKTIENGESELLSCHAFT, priority 2013, published 2016)
pIC50: −log10 of the molar value.

Key:
MKNK1 [1] = target: T1, MKNK1 (Homo sapiens, UniProt Q9BUB5, T385D); assay: MKNK1 kinase assay (MKNK1 TR-FRET assay); type: biochemical; conditions: 10 μM ATP, 15 min preincubation
T1 construct: GST (N); purchased Carna Biosciences 02-145; host or cells: insect cells (baculovirus expression system)
Source text: MKNK1-inhibitory activity of compounds of the present invention was quantified employing the MKNK1 TR-FRET assay as described in the following paragraphs.
(§1) A recombinant fusion protein of Glutathione-S-Transferase (GST, N-terminally) and human full-lengt MKNK1 (amino acids 1-424 and T344D of accession number BAA 19885.1), expressed in insect cells using baculovirus expression system and purified via glutathione sepharose affinity chromatography, was purchased from Carna Biosciences (product no 02-145) and used as enzyme. As substrate for the kinase reaction the biotinylated peptide biotin-Ahx-IKKRKLTRRKSLKG (C-terminus in amide form) was used which can be purchased e.g. form the company Biosyntan (Berlin-Buch, Germany).
For the assay 50 nL of a 100 fold concentrated solution of the test compound in DMSO was pipetted into a black low volume 384 well microtiter plate (Greiner Bio-One, Frickenhausen, Germany), 2 μL of a solution of MKNK1 in aqueous assay buffer [50 mM HEPES pH 7.5, 5 mM magnesium chloride, 1.0 mM dithiothreitol, 0.005% (v/v) Nonidet-P40 (Sigma)] was added and the mixture was incubated for 15 min at 22° C. to allow pre-binding of the test compounds to the enzyme before the start of the kinase reaction. […] The concentration of MKNK1 was adjusted depending of the activity of the enzyme lot and was chosen appropriate to have the assay in the linear range, typical concentrations were in the range of […]. The reaction was stopped by the addition of 5 μL of a solution of TR-FRET detection reagents (5 nM streptavidine-XL665 [Cisbio Bioassays, Codolet, France] and 1 nM anti-ribosomal protein S6 (pSer236)-antibody from Invitrogen [#44921G] and 1 nM LANCE EU-W1024 labeled ProteinG [Perkin-Elmer, product no. AD0071]) in an aqueous EDTA-solution (100 mM EDTA, 0.1% (w/v) bovine serum albumin in 50 mM HEPES pH 7.5).
(§2) The resulting mixture was incubated for 1 h at 22° C. to allow the formation of complex between the phosphorylated biotinylated peptide and the detection reagents. Subsequently the amount of phosphorylated substrate was evaluated by measurement of the resonance energy transfer from the Eu-chelate to the streptavidine-XL. Therefore, the fluorescence emissions at 620 nm and 665 nm after excitation at 350 nm were measured in a TR-FRET reader, e.g. a Rubystar (BMG Labtechnologies, Offenburg, Germany) or a Viewlux (Perkin-Elmer). The ratio of the emissions at 665 nm and at […] was taken as the measure for the amount of phosphorylated substrate. The data were normalised (enzyme reaction without inhibitor=0% inhibition, all other assay components but no enzyme=100% inhibition).

MKNK1 [2] = target: T1, MKNK1; assay: MKNK1 kinase high ATP assay (TR-FRET-based); type: biochemical; conditions: 2 mM ATP, 15 min preincubation
Method: MKNK1 Kinase High ATP Assay
MKNK1-inhibitory activity at high ATP of compounds of the present invention after their preincubation with MKNK1 was quantified employing the TR-FRET-based MKNK1 high ATP assay as described in the following paragraphs.
as §1, with “human full-length” for “human full-lengt”, “was used,” for “was used”, “e.g. from” for “e.g. form”
For the assay 50 nL of a 100 fold concentrated solution of the test compound in DMSO was pipetted into a black low volume 384 well microtiter plate (Greiner Bio-One, Frickenhausen, Germany), 2 μL of a solution of MKNK1 in aqueous assay buffer [50 mM HEPES pH 7.5, 5 mM magnesium chloride, 1.0 mM dithiothreitol, 0.005% (v/v) Nonidet-P40 (Sigma)] was added and the mixture was incubated for 15 min at 22° C. to allow pre-binding of the test compounds to the enzyme before the start of the kinase reaction. Then the kinase reaction was started by the addition of 3 μL of a solution of adenosine-tri-phosphate (ATP, 3.3 mM=>final conc. in the 5 μL assay volume is 2 mM) and substrate (0.1 μM=>final conc. in the 5 μL assay volume is 0.06 μM) in assay buffer and the resulting mixture was incubated for a reaction time of 30 min at 22° C. The concentration of MKNK1 was adjusted depending of the activity of the enzyme lot and was chosen appropriate to have the assay in the linear range, typical concentrations were in the range of 0.003 μg/mL. The reaction was stopped by the addition of 5 μL of a solution of TR-FRET detection reagents (5 nM streptavidine-XL665 [Cisbio Bioassays, Codolet, France] and 1 nM anti-ribosomal protein S6 (pSer236)-antibody from Invitrogen [#44921G] and 1 nM LANCE EU-W1024 labeled ProteinG [Perkin-Elmer, product no. AD0071]) in an aqueous EDTA-solution (100 mM EDTA, 0.1% (w/v) bovine serum albumin in 50 mM HEPES pH 7.5).
as §2

T1 sequence (Q9BUB5 1-424 isoform Q9BUB5-2 T344D): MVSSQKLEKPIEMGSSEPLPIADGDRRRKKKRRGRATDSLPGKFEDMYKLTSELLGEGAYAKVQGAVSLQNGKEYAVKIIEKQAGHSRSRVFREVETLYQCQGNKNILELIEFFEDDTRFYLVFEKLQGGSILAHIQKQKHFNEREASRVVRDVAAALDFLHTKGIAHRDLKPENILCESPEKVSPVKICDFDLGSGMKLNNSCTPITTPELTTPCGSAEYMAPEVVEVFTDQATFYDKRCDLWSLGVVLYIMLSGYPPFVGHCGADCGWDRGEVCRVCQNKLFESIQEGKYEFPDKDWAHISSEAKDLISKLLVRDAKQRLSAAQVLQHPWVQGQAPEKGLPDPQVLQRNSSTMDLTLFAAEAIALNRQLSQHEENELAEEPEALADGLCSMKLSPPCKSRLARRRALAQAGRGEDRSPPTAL

| SMILES | pIC50 (MKNK1 [1]; Table 1a) | pIC50 (MKNK1 [2]; Table 2a) | pIC50 (MKNK1 [1]; Table 1c) | pIC50 (MKNK1 [2]; Table 2c) | further results |
| --- | --- | --- | --- | --- | --- |
| O=C(c1ccon1)N1CCC[C@H]1CCOc1ccc2ncc(-c3cc4ccccc4o3)n2n1 [Example I-55, [(2S)-2-(2-{[3-(1-Benzofuran-2-yl)imidazo[1,2-b]-pyridazin-6-yl]oxy}ethyl)pyrrolidin-1-yl](1,2-oxazol-3-yl)methanone] | 8.68 | 8.42 | – | – | – |
| O=C(C1CCCO1)N1CCC[C@H]1CCOc1ccc2ncc(-c3cc4ccccc4o3)n2n1 (stereo partly drawn) [Example I-53, [(2S)-2-(2-{[3-(1-Benzofuran-2-yl)imidazo[1,2-b]-pyridazin-6-yl]oxy}ethyl)pyrrolidin-1-yl](tetrahydrofuran-2-yl)methanone] | 8.62 | 8.46 | – | – | – |
| C[C@H](N)COc1ccc2ncc(-c3cc4c(N5CCC(CO)CC5)nccc4o3)n2n1 [III-22, {1-[2-(6-{[(2S)-2-Aminopropyl]oxy}imidazo[1,2-b]pyridazin-3-yl)furo[3,2-c]pyridin-4-yl]piperidin-4-yl}methanol] | – | – | 8.19 | 7.85 | – |
| C[C@H](N)COc1ccc2ncc(-c3cc4c(N5CC[C@@H](N(C)C)C5)nccc4o3)n2n1 [III-11, (3R)-1-[2-(6-{[(2S)-2-Aminopropyl]oxy}imidazo[1,2-b]pyridazin-3-yl)furo[3,2-c]pyridin-4-yl]-N,N-dimethylpyrrolidin-3-amine] | – | – | 8.57 | 7.91 | – |
| O=C1CC[C@H](COc2ccc3ncc(-c4cc5c(N6CCC[C@@H]6CO)nccc5o4)n3n2)N1 [III-67, (5R)-5-{[(3-{4-[(2R)-2-(Hydroxymethyl)pyrrolidin-1-yl]furo[3,2-c]pyridin-2-yl}imidazo[1,2-b]pyridazin-6-yl)oxy]methyl}pyrrolidin-2-one] | – | – | 7.97 | 7.96 | – |
| COc1ccc2ncc(-c3cc4c(N5CCN(c6ccccc6)CC5)cccc4o3)n2n1 [II-22, 6-Methoxy-3-[4-(4-phenylpiperazin-1-yl)-1-benzofuran-2-yl]imidazo[1,2-b]-pyridazine] | – | – | – | – | pIC50 (MKNK1 [1]; Table 1b): 6.43; pIC50 (MKNK1 [2]; Table 2b): 6.37 |
| CCN(CCOC(C)(C)C)c1nccc2oc(-c3cnc4ccc(OC[C@@H]5COCCN5)nn34)cc12 [III-39, N-(2-tert-Butoxyethyl)-N-ethyl-2-{6-[(3S)-morpholin-3-ylmethoxy]imidazo-[1,2-b]pyridazin-3-yl}furo[3,2-c]pyridin-4-amine] | – | – | 9.05 | 9.30 | – |
| CCN(CCOC)c1nccc2oc(-c3cnc4ccc(OC[C@H]5CNCC(=O)N5)nn34)cc12 [III-90, (6R)-6-{[(3-{4-[Ethyl(2-methoxyethyl)amino]furo[3,2-c]pyridin-2-yl}imidazo[1,2-b]pyridazin-6-yl)oxy]methyl}piperazin-2-one] | – | – | 9.10 | 9.30 | – |
| CS(=O)(=O)CCCOc1ccc2ncc(-c3cc4c(N5CCCC5)nccc4o3)n2n1 [III-44, 6-[3-(Methylsulfonyl)propoxy]-3-[4-(pyrrolidin-1-yl)furo[3,2-c]pyridin-2-yl]imidazo[1,2-b]pyridazine] | – | – | 8.26 | 7.83 | – |
| CN(CCCO)c1nccc2oc(-c3cnc4ccc(O[C@H]5C[C@H](N)C5)nn34)cc12 [III-105, 3-[(2-{6-[(trans-3-Aminocyclobutyl)oxy]imidazo[1,2-b]pyridazin-3-yl}furo-[3,2-c]pyridin-4-yl)(methyl)amino]propan-1-ol] | – | – | 8.68 | 8.14 | – |
| COC(=O)N1CCC[C@H]1CCOc1ccc2ncc(-c3cc4ccccc4o3)n2n1 [Example I-10, Methyl (2S)-2-(2-{[3-(1-benzofuran-2-yl)imidazo[1,2-b]pyridazin-6-yl]oxy}-ethyl)pyrrolidine-1-carboxylate] | 8.49 | 8.00 | – | – | – |
| O=C(C1CCCC1)N1CCC[C@H]1CCOc1ccc2ncc(-c3cc4ccccc4o3)n2n1 [Example I-56, [(2S)-2-(2-{[3-(1-Benzofuran-2-yl)imidazo[1,2-b]-pyridazin-6-yl]oxy}ethyl)pyrrolidin-1-yl](cyclopentyl)-methanone] | 8.40 | 8.42 | – | – | – |
| CCN(CCOC)c1cccc2oc(-c3cnc4ccc(OC[C@H](C)N)nn34)cc12 [II-24, 2-(6-{[(2S)-2-Aminopropyl]oxy}imidazo[1,2-b]pyridazin-3-yl)-N-ethyl-N-(2-methoxyethyl)-1-benzofuran-4-amine] | – | – | – | – | pIC50 (MKNK1 [1]; Table 1b): 8.48; pIC50 (MKNK1 [2]; Table 2b): 8.49 |
| C[C@H](N)COc1ccc2ncc(-c3cc4c(N5C[C@@H](C)O[C@@H](C)C5)nccc4o3)n2n1 [III-19, (2S)-1-[(3-{4-[(2R,6S)-2,6-Dimethylmorpholin-4-yl]furo[3,2-c]pyridin-2-yl}imidazo[1,2-b]pyridazin-6-yl)oxy]propan-2-amine] | – | – | 7.91 | 7.37 | – |
| CCN(CCOC)c1nccc2oc(-c3cnc4ccc(OC[C@@H]5CNCC(=O)N5)nn34)cc12 [III-113, (6S)-6-{[(3-{4-[Ethyl(2-methoxyethyl)amino]furo[3,2-c]pyridin-2-yl}imidazo[1,2-b]pyridazin-6-yl)oxy]methyl}piperazin-2-one] | – | – | 9.30 | 9.52 | – |
| O=C1CC[C@@H](COc2ccc3ncc(-c4cc5ccccc5o4)n3n2)N1 [Example I-7, (5S)-5-({[3-(1-Benzofuran-2-yl)imidazo[1,2-b]pyridazin-6-yl]oxy}methyl)-pyrrolidin-2-one] | 8.51 | 8.04 | – | – | – |
| CC(=O)NCCOc1ccc2ncc(-c3cc4ccccc4o3)n2n1 [Example I-28, N-(2-{[3-(1-Benzofuran-2-yl)imidazo[1,2-b]pyridazin-6-yl]oxy}ethyl)acetamide] | 8.04 | 7.53 | – | – | – |
| CC1(C)CN(c2cccc3oc(-c4cnc5ccc(O[C@H]6C[C@H](N)C6)nn45)cc23)CCO1 [II-66, trans-3-({3-[4-(2,2-dimethylmorpholin-4-yl)-1-benzofuran-2-yl]imidazo[1,2-b]pyridazin-6-yl}oxy)cyclobutanamine] | – | – | – | – | pIC50 (MKNK1 [1]; Table 1b): 7.56 |
| C[C@@H]1CNCCN1c1cccc2oc(-c3cnc4ccc(OCC(F)(F)F)nn34)cc12 [II-64, 3-{4-[(2R)-2-methylpiperazin-1-yl]-1-benzofuran-2-yl}-6-(2,2,2-trifluoroethoxy)im-idazo[1,2-b]pyridazine] | – | – | – | – | pIC50 (MKNK1 [1]; Table 1b): 8.03 |
| C[C@@H]1CNCCN1c1cccc2oc(-c3cnc4ccc(OC[C@@H]5CCC(=O)N5)nn34)cc12 [II-62, (5S)-5-{[(3-{4-[(2R)-2-methylpiperazin-1-yl]-1-benzofuran-2-yl}imidazo[1,2-b]pyridazin-6-yl)oxy]methyl}pyrrolidin-2-one] | – | – | – | – | pIC50 (MKNK1 [1]; Table 1b): 8.29 |
